Patent US20080045559A1, “TOCOPHEROL-MODIFIED THERAPEUTIC DRUG COMPOUNDS” (SONUS PHARMACEUTICALS, INC., priority 2003, published 2008)
Counter-ions that a name gives are not always drawn. Like-named read-outs stand apart in the source and are kept apart here. Marks after values point to notes of the source that are not given here. Values belong to the compound of their own block, whether it stands above or below them.

Tests used:
H460 (NSCLC) = experiment: In vitro cytotoxicity GI50, Example 48; type: cell-based
HCT-116 (COLON) [1] = experiment: In vitro cytotoxicity GI50, Example 48; type: cell-based; details: Alamar Blue or Sulfarhodamine B
Description: The study was performed using either Alamar Blue or Sulfarhodamine B assays.

[2] = rat, in vivo, iv; cited from earlier work
MCF-7 (BREAST) = experiment: In vitro cytotoxicity GI50, Example 17; type: cell-based; details: Homo sapiens, MCF7, emulsion formulations, 48 hours, ALAMAR BLUE
Description: (§1) The cells were in contact with varying concentrations of the test article for a period of 48 hours. At the end of 48 hours, staining with ALAMAR BLUE was performed to determine the number of viable cells and calculate the degree of cellular growth inhibition as compared to a control group.

NCI-H460 (NSCLC) = experiment: In vitro cytotoxicity GI50, Example 17; type: cell-based; details: Homo sapiens
Description: as §1

HCT-116 (COLON) [3] = experiment: In vitro cytotoxicity GI50, Example 17; type: cell-based; details: Homo sapiens
Description: as §1

HCT-15 (COLON) = experiment: In vitro cytotoxicity GI50, Example 17; type: cell-based; details: Homo sapiens
Description: as §1

OVCAR-3 (OVARIAN) = experiment: In vitro cytotoxicity GI50, Example 17; type: cell-based; details: emulsion formulations, 48 hours, ALAMAR BLUE
Description: as §1

HT29 (COLON) = experiment: In vitro cytotoxicity GI50, Example 17; type: cell-based; details: Homo sapiens
Description: as §1

HT-29 human tumor cells = experiment: HT-29 human tumor xenograft; type: in vivo, Athymic mice; details: for Number of animals with no measurable tumor on Day 55 / Tumor Growth Delay (T-C) / Tumor Growth Inhibition (% T/C): 15 mg/kg i.v.; for Mice with no measurable tumor: fifty-five days after dose initiation
Description: HT-29 Human Tumor Xenograft. Athymic mice were subcutaneously implanted with 30-40 mg tumor fragments using 12-gauge trocar needles. A sufficient number of mice were implanted with fragments so tumors in narrow weight range (100-200 mg) were selected for the trial on staging day (SD). The animals selected with tumors in the proper size range were randomized into six groups of 10 animals and intravenously administered the following test compounds:
In both xenograph studies, animal body weights and tumors were measured twice weekly following the initiation of dosing. The tumor measurements were performed using a caliper (millimeters); the tumor volume was calculated based on the formula: (Length×width^2)/2=Volume(mm^3).

[4] = Solubility to saturation in various solvents, supernatant analysed by HPLC; type: physicochemical
Description: Compounds were dissolved in each solvent under constant stirring and temperature to saturation. The resulting solutions were centrifuged and the supernatant was analyzed by high performance liquid chromatography (HPLC).

[5] = Pharmacokinetics after intravenous bolus in rats; type: in vivo; details: Sprague-Dawley, rat, intravenous bolus of emulsion, approximately 14 mg/kg, plasma; for half-life: read-out: t1/2 (elimination) (converted)
Description: Blood samples were collected for up to 120 hours post dose via the jugular vein. […] A noncompartmental analysis was carried out using WinNonlin (v 4.1).

[6] = In vitro stability of the lactone form in the presence of human serum albumin; type: in vitro ADME; details: saline buffered solution 10 mM pH 7.4, 4% human serum albumin, 37° C.; emulsions vs camptothecin in DMSO; FIG. 12
Excerpt: High performance liquid chromatography with fluorescence detection was used to analyze the decrease in the concentration of the lactone form over time.

HT-29 (COLON) = experiment: In vitro cytotoxicity GI50, Example 48; type: cell-based; details: Homo sapiens, Alamar Blue or Sulfarhodamine B
SKOV-3 (OVARIAN) = experiment: In vitro cytotoxicity GI50, Example 48; type: cell-based; details: Homo sapiens, SK-OV-3, Alamar Blue or Sulfarhodamine B

SMILES: CCc1c2c(nc3ccc(OC(=O)CCC(=O)Oc4c(C)c(C)c5c(c4C)CCC(C)(CCCC(C)CCCC(C)CCCC(C)C)O5)cc13)-c1cc3c(c(=O)n1C2)COC(=O)C3(CC)OC(=O)CCC(=O)Oc1c(C)c(C)c2c(c1C)CCC(C)(CCCC(C)CCCC(C)CCCC(C)C)O2 (stereo not drawn) [10,20-diVESA-SN38, 10,20-Di(tocopherol succinate) 7-Ethyl-10-hydroxycamptothecin]
GI50 (H460 (NSCLC); H460, Alamar Blue or Sulfarhodamine B, read-out: GI50): 4060 nM
GI50 (HCT-116 (COLON) [1]; HCT-116): 9330 nM

SMILES: CCc1c2c(nc3ccc(OC(C)=O)cc13)-c1cc3c(c(=O)n1C2)COC(=O)[C@@]3(CC)OC(=O)CCC(=O)Oc1c(C)c(C)c2c(c1C)CC[C@@](C)(CCC[C@H](C)CCC[C@H](C)CCCC(C)C)O2 [10-acetyl-20-VESA-SN38, 10-Acetyl-20-(d-α-tocopherolsuccinate)-7-ethyl-10-hydroxycamptothecin]
GI50 (H460 (NSCLC); Homo sapiens, NCI-H460): 3900 nM

SMILES: CCc1c2c(nc3ccc(OC(=O)CCC(=O)Oc4c(C)c(C)c5c(c4C)CC[C@@](C)(CCC[C@H](C)CCC[C@H](C)CCCC(C)C)O5)cc13)-c1cc3c(c(=O)n1C2)COC(=O)[C@@]3(CC)OC(C)=O [20-acetyl-10-VESA-SN38, 20-Acetyl-10-(d-α-tocopherolsuccinate)-7-ethyl-10-hydroxycamptothecin]
GI50 (H460 (NSCLC); Homo sapiens, NCI-H460): 1260 nM
GI50 (HCT-116 (COLON) [1]; Homo sapiens, HCT-116): 144 nM

SMILES: CCc1c2c(nc3ccc(OC(=O)N4CCC(N5CCCCC5)CC4)cc13)-c1cc3c(c(=O)n1C2)COC(=O)[C@]3(O)CC [Irinotecan, irinotecan hydrochloride]
MRT [2]: 1.43 h

SMILES: CC[C@@]1(OC(=O)CCC(=O)Oc2c(C)c(C)c3c(c2C)CC[C@@](C)(CCC[C@H](C)CCC[C@H](C)CCCC(C)C)O3)C(=O)OCc2c1cc1n(c2=O)Cc2cc3ccccc3nc2-1 [VESA-CPT, Butanedioic acid, (2R)-3,4-dihydro-2,5,7,8-tetramethyl-2-[(4R,8R)-4,8,12-trimethyltridecyl]-2H-1-benzopyran-6-yl (4S)-4-ethyl-3,4,12,14-tetrahydro-3,14-dioxo-1H-pyrano[3′,4′:6,7]indolizino[1,2-b]quinolin-4-yl ester]
GI50 (MCF-7 (BREAST)): 325 nM
GI50 (NCI-H460 (NSCLC); NCI-H460, 48 h): 43 nM
GI50 (HCT-116 (COLON) [3]; HCT-116, 48 h): 449 nM
GI50 (HCT-15 (COLON); HCT-15, 48 h): 20000 nM
GI50 (result in words) (OVCAR-3 (OVARIAN)): Poor
GI50 (HT29 (COLON); HT-29, 48 h): 434 nM
Number of animals with no measurable tumor on Day 55 (HT-29 human tumor cells; q1dx5 (2 weeks)): 0/10
Tumor Growth Delay (T-C) (HT-29 human tumor cells; q1dx5 (2 weeks)): 8.5 days
Tumor Growth Inhibition (% T/C) (HT-29 human tumor cells; q1dx5 (2 weeks), Day 55): 79 % T/C
Number of animals with no measurable tumor on Day 55 (HT-29 human tumor cells; q3dx10): 0/10
Tumor Growth Delay (T-C) (HT-29 human tumor cells; q3dx10): 0 days
Solubility ([4]; Acetonitrile, Room Temp.): 49.6 mg/g
Solubility ([4]; Captex 300 EP, Room Temp.): 96.7 mg/g
Solubility ([4]; Chloroform, Room Temp.): >372.5 mg/g
Solubility ([4]; DMSO, Room Temp.): >255.5 mg/g
Solubility ([4]; Ethanol Denatured, Room Temp.): 57.1 mg/g
Solubility ([4]; Glycerin USP/EP/BP/JP, Room Temp.): 2.541 mg/g
Solubility ([4]; Methanol, Room Temp.): 14.4 mg/g
Solubility ([4]; Methylene dichloride, Room Temp.): >336.5 mg/g
Solubility ([4]; PEG-400 NF, Room Temp.): 17.5 mg/g
Solubility ([4]; Propylene Glycol, USP, Room Temp.): 0.4633 mg/g
Solubility ([4]; Soybean Oil USP, Room Temp.): 45.2 mg/g
Solubility ([4]; TPGS, 65 °C): >133.3 mg/g
Solubility ([4]; Tween 80 NF, 65 → Room Temp.): 48.3 mg/g
Solubility ([4]; Vitamin E USP/NF, 65 °C): >288.3 mg/g
MRT ([5]; in vivo): 9.4 h
clearance ([5]; in vivo): 0.135 mL/min/kg
half-life ([5]; in vivo): 29.1 h
Stability of the lactone form [6]: greater than that of camptothecin

MRT [5]: 5.15 h
clearance [5]: 0.112 mL/min/kg
half-life [5]: 3.49 h
Stability of the lactone form [6]: greater than that of camptothecin
SMILES: CCc1c2c(nc3ccc(OC(=O)CCC(=O)Oc4c(C)c(C)c5c(c4C)CC[C@@](C)(CCC[C@H](C)CCC[C@H](C)CCCC(C)C)O5)cc13)-c1cc3c(c(=O)n1C2)COC(=O)[C@]3(O)CC [VESA-SN38, Butanedioic acid, (4S)-4,11-diethyl-3,4,12,14-tetrahydro-4-hydroxy-3,14-dioxo-1H-pyrano[3′,4′:6,7]indolizino[1,2-b]quinolin-9-yl (2R)-3,4-dihydro-2,5,7,8-tetramethyl-2-[(4R,8R)-4,8,12-trimethyltridecyl]-2H-1-benzopyran-6-yl ester]
GI50 (NCI-H460 (NSCLC); NCI-H460, emulsion formulations, 48 hours, ALAMAR BLUE, read-out: GI50): 4 nM
GI50 (HCT-116 (COLON) [3]; HCT-116, emulsion formulations, 48 hours, ALAMAR BLUE, read-out: GI50): 119 nM
GI50 (HCT-15 (COLON); HCT-15, emulsion formulations, 48 hours, ALAMAR BLUE, read-out: GI50): 99 nM
GI50 (OVCAR-3 (OVARIAN); Homo sapiens): 83 nM
GI50 (HT29 (COLON); HT-29, HT29, emulsion formulations, 48 hours, ALAMAR BLUE, read-out: GI50): 91 nM
Number of animals with no measurable tumor on Day 55 (HT-29 human tumor cells; q1dx5 (2 weeks)): 4/10
Tumor Growth Delay (T-C) (HT-29 human tumor cells; q1dx5 (2 weeks)): >28* days
Tumor Growth Inhibition (% T/C) (HT-29 human tumor cells; q1dx5 (2 weeks), Day 55): 4 % T/C
Number of animals with no measurable tumor on Day 55 (HT-29 human tumor cells; q3dx10): 8/10
Tumor Growth Delay (T-C) (HT-29 human tumor cells; q3dx10): >28* days
Tumor Growth Inhibition (% T/C) (HT-29 human tumor cells; q3dx10, Day 55): 2 % T/C
Mice with no measurable tumor (HT-29 human tumor cells; q1dx5): 40%
Mice with no measurable tumor (HT-29 human tumor cells; q3dx10): 80%

SMILES: CCc1c2c(nc3ccc(OC(=O)CC4(CC(=O)Oc5c(C)c(C)c6c(c5C)CC[C@@](C)(CCC[C@H](C)CCC[C@H](C)CCCC(C)C)O6)CCCC4)cc13)-c1cc3c(c(=O)n1C2)COC(=O)[C@]3(O)CC [d-α-Tocopherol-3,3-tetramethyleneglutarate-7-ethyl-10-hydroxycamptothecin]
GI50 (HT-29 (COLON)): 48 nM
GI50 (H460 (NSCLC); Homo sapiens, NCI-H460, H460, Alamar Blue or Sulfarhodamine B, read-out: GI50): 560 nM
GI50 (HCT-116 (COLON) [1]; Homo sapiens, HCT-116, HCT-116): 214 nM

SMILES: CCc1c2c(nc3ccc(OC(=O)CCCC(=O)Oc4c(C)c(C)c5c(c4C)CC[C@@](C)(CCC[C@H](C)CCC[C@H](C)CCCC(C)C)O5)cc13)C1CC3C(COC(=O)[C@]3(O)CC)C(=O)N1C2 (stereo partly drawn) [d-α-Tocopherolglutarate-SN38, d-α-Tocopherolglutarate-7-ethyl-10-hydroxycamptothecin]
GI50 (HCT-116 (COLON) [1]; Homo sapiens, HCT-116, HCT-116): 190 nM

SMILES: CCc1c2c(nc3ccc(OC(=O)CC(C)CC(=O)Oc4c(C)c(C)c5c(c4C)CC[C@@](C)(CCC[C@H](C)CCC[C@H](C)CCCC(C)C)O5)cc13)-c1cc3c(c(=O)n1C2)COC(=O)[C@]3(O)CC (stereo partly drawn) [d-α-tocopherol-3-methylglutarate-SN38, d-α-Tocopherol-3-methylglutarate-7-ethyl-10-hydroxycamptothecin]
GI50 (HCT-116 (COLON) [1]; HCT-116): 187 nM
GI50 (HCT-116 (COLON) [1]; Homo sapiens, HCT-116, HCT-116): 116 nM

SMILES: CCc1c2c(nc3ccc(OC(=O)CCC(=O)Oc4cc(C)c5c(c4)CC[C@@](C)(CCC[C@H](C)CCC[C@H](C)CCCC(C)C)O5)cc13)-c1cc3c(c(=O)n1C2)COC(=O)[C@]3(O)CC [δ-tocopherol succinate-SN38, δ-Tocopherolsuccinate-7-ethyl-10-hydroxycamptothecin]
GI50 (SKOV-3 (OVARIAN)): 2.95 nM

SMILES: CCc1c2c(nc3ccc(OC(=O)CC(C)CC(=O)Oc4cc(C)c5c(c4)CC[C@@](C)(CCC[C@H](C)CCC[C@H](C)CCCC(C)C)O5)cc13)-c1cc3c(c(=O)n1C2)COC(=O)[C@]3(O)CC (stereo partly drawn) [δ-tocopherol-3-methylglutarate-SN38, δ-Tocopherol-3-methylglutarate-7-ethyl-10-hydroxycamptothecin]
GI50 (SKOV-3 (OVARIAN)): 1.48 nM
